Five compounds from patent US20250353891A1 (MEDIMMUNE LIMITED, priority 2022, published 2025) can be followed below.

As usually defined, the EC50 is the concentration giving half of the maximal effect.

Assay [1] concerns the target human glucagon receptor (hGCGR) (Homo sapiens, UniProt P47871). Briefly: cAMP production (HTRF) in CHO cells expressing hGCGR. It counts as cell-based. Also on record: expressed in transfected cells. The settings on record: cAMP in CHO hGCGR cells, geometric mean, read-out: hGluc-R EC50. In a few lines: (§1)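 Read-out: HTRF cAMP (anti-cAMP cryptate donor, cAMP-d2 acceptor in conjugate/lysis buffer), converted to % Delta F and fitted by 4-parameter logistic for EC50. Cell densities were 1×10^5 cells/mL (hGLP-1R) or 2×10^5 cells/mL (hGCGR). Stimulation lasted 30 min at room temperature.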
On the technique in general: Changes in cAMP serve as a functional read-out for many G protein-coupled receptors.

The nature of assay [2]: Mouse acute food intake study. It counts as in vivo. The settings on record: male C57Bl/6 mice, s.c., cumulative food intake at 24 hr vs vehicle. How it is done: Male C57Bl/6 mice obtained from Jackson Laboratories or Charles River at 8-9 weeks of age and were housed one per cage in BioDaq (Research Diets) cages. Mice were placed on Alpha Dri bedding, standard chow diet (Envigo, 2018) and given water pouches. Mice were allowed to acclimate for 1-2 weeks. Body weight was measured to ensure appropriate acclimation. After acclimation, mice were sham dosed a minimum of 2 times prior to initiation of food intake study. On study day, mice were placed in clean cage bottoms, weighed, and fasted for 6-8 hours. Mice were sorted into groups based on average 24-hour food intake data and body weight. 1-2 hours prior to lights out, mice were dosed subcutaneously with one vehicle or test peptide dissolved in an appropriate vehicle at 5 mL/kg. Mice were left undisturbed and allowed access to food and water for 48 hours. Automated food intake was monitored in the BioDaq system was monitored during this time. Discrete food intake data was exported into MS Excel from which cumulative food intake data was generated and analyzed.

For assay [3], the target named is human GLP-1 receptor (hGLP-1R) (Homo sapiens, UniProt P43220). Briefly: cAMP production (HTRF) in CHO cells expressing hGLP-1R. The following applies: for % Relative Potency Ratio: % GLP-1R activity relative to GLP-1 / % GlucR activity relative to glucagon; for EC50: Table 7, peptides modified at position 20, cAMP in CHO hGLP-1R cells, geometric mean, read-out: hGLP-1R EC50. It counts as cell-based. Also on record: expressed in transfected cells. In outline:
as §1

[4] abbreviates: Table 6, peptides modified at position 17.
The mark [5] stands for this setting: Table 7, peptides modified at position 20.

Like-named read-outs stand apart in the source and are kept apart here. Starred links: 1 amine or outer side, 2 acyl side, 3 side chain; linkers in the order of their positions; H or OH if unused. Non-standard residues stand in square brackets, D forms with d. Residues, ends and D or L forms follow the SMILES beside them. Groups on a side chain read outwards from the residue. *: point of attachment. C18 diacid = O=C(O)CCCCCCCCCCCCCCCCC(=O)*; γGlu = O=C(O)[C@H](CCC(=O)[*:2])N[*:1]; Stearoyl = CCCCCCCCCCCCCCCCCC(=O)*; αMeF = C[C@](N)(Cc1ccccc1)C(=O)O; PEG2 = NCCOCCOCCC(=O)O; AEEA = NCCOCCOCC(=O)O; Aib = CC(C)(N)C(=O)O

human glucagon receptor (hGCGR), sequence (P47871 26-477): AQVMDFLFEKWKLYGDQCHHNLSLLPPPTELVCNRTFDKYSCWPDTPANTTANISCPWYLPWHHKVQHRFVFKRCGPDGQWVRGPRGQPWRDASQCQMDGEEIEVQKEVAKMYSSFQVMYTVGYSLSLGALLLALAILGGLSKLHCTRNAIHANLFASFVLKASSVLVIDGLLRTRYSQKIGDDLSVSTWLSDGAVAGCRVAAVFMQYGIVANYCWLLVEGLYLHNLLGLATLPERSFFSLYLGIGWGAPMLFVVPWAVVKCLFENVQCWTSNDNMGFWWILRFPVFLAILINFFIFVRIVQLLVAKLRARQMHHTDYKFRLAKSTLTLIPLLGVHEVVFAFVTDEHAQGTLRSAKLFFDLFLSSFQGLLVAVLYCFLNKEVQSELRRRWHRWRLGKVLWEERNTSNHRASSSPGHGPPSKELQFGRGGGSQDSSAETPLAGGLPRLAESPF
human GLP-1 receptor (hGLP-1R), sequence (P43220 24-463): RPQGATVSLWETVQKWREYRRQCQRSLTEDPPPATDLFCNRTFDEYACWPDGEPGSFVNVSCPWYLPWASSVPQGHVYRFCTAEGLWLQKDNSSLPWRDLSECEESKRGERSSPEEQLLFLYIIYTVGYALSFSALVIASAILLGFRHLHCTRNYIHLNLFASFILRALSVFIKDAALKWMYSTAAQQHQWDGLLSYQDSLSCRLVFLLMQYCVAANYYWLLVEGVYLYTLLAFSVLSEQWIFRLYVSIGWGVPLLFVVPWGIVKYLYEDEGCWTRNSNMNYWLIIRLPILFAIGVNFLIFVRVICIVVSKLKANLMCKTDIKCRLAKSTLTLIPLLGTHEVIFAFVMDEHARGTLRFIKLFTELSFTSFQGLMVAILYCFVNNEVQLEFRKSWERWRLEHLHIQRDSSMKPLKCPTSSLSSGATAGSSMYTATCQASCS

`CCCCCCCCCCCCCCCCCC(=O)N[C@@H](CCC(=O)N[C@@H](CCC(=O)NCCOCCOCCC(=O)NCCOCCOCCC(=O)NCCCC[C@H](NC(=O)[C@H](CO)NC(=O)[C@H](CC(=O)O)NC(=O)[C@H](CC(C)C)NC(=O)C(C)(C)NC(=O)[C@H](CCCCN)NC(=O)[C@H](CO)NC(=O)[C@@H](NC(=O)[C@H](CC(=O)O)NC(=O)[C@H](CO)NC(=O)[C@@H](NC(=O)[C@](C)(Cc1ccccc1)NC(=O)[C@H](CO)NC(=O)CNC(=O)[C@H](CCC(N)=O)NC(=O)[C@H](CO)NC(=O)[C@@H](N)Cc1c[nH]cn1)[C@@H](C)O)C(C)C)C(=O)N[C@@H](C)C(=O)N[C@@H](C)C(=O)N[C@@H](CCC(N)=O)C(=O)N[C@@H](CC(=O)O)C(=O)N[C@@](C)(Cc1ccccc1)C(=O)N[C@H](C(=O)N[C@@H](CCC(N)=O)C(=O)NC(C)(C)C(=O)N[C@@H](CC(C)C)C(=O)N[C@@H](CCC(=O)O)C(=O)N[C@@H](C)C(=O)NCC(=O)NCC(N)=O)C(C)C)C(=O)O)C(=O)O` [Peptide 96] (H-HSQGS[αMeF]TSDVSK[Aib]LDSK([PEG2-PEG2-γGlu-γGlu-Stearoyl])AAQD[αMeF]VQ[Aib]LEAGG-NH2; N-terminus assumed): the EC50 in assay [1] (setting [4]) was found to be 30.1 pM. Also, in assay [2] (dose 10 nmol/kg), the “24 hr % Vehicle Food Intake” value is on record as 51.9%. In assay [3] (Table 6), the “% Relative Potency Ratio” value came out at 69.9.

In the case of `CCCCCCCCCCCCCCCCCC(=O)N[C@@H](CCC(=O)N[C@@H](CCC(=O)NCCOCCOCCC(=O)NCCOCCOCCC(=O)NCCCC[C@H](NC(=O)[C@H](CO)NC(=O)[C@H](CC(=O)O)NC(=O)[C@H](CC(C)C)NC(=O)C(C)(C)NC(=O)[C@H](CCCCN)NC(=O)[C@H](CO)NC(=O)[C@@H](NC(=O)[C@H](CC(=O)O)NC(=O)[C@H](CO)NC(=O)[C@@H](NC(=O)[C@](C)(Cc1ccccc1)NC(=O)[C@H](CO)NC(=O)CNC(=O)[C@H](CCC(N)=O)NC(=O)C(C)(C)NC(=O)[C@@H](N)Cc1c[nH]cn1)[C@@H](C)O)C(C)C)C(=O)N[C@@H](CCCNC(=N)N)C(=O)N[C@@H](C)C(=O)N[C@@H](CCC(N)=O)C(=O)N[C@@H](CC(=O)O)C(=O)N[C@@](C)(Cc1ccccc1)C(=O)N[C@H](C(=O)N[C@@H](CCC(N)=O)C(=O)NC(C)(C)C(=O)N[C@H](C(=O)N[C@@H](C)C(=O)N[C@@H](CC(N)=O)C(N)=O)[C@@H](C)CC)C(C)C)C(=O)O)C(=O)O` [Peptide 102] (H-H[Aib]QGS[αMeF]TSDVSK[Aib]LDSK([PEG2-PEG2-γGlu-γGlu-Stearoyl])RAQD[αMeF]VQ[Aib]IAN-NH2; N-terminus assumed), in assay [1] (setting [4]), the EC50 came to 26.5 pM. Besides, the “24 hr % Vehicle Food Intake” value in assay [2] (dose 10 nmol/kg) is listed as 81.9%. In addition, in assay [3] (Table 6), the “% Relative Potency Ratio” value was determined as 227.0.

`CC[C@H](C)[C@H](NC(=O)[C@H](CO)NC(=O)[C@H](CCC(N)=O)NC(=O)[C@@H](NC(=O)[C@H](Cc1ccccc1)NC(=O)[C@H](CC(=O)O)NC(=O)[C@H](CCCCNC(=O)COCCOCCNC(=O)COCCOCCNC(=O)CC[C@H](NC(=O)CCCCCCCCCCCCCCCCC(=O)O)C(=O)O)NC(=O)[C@H](C)NC(=O)C(C)(C)NC(=O)[C@H](CCCNC(=N)N)NC(=O)[C@H](CO)NC(=O)[C@H](CC(=O)O)NC(=O)[C@H](CC(C)C)NC(=O)[C@](C)(Cc1ccccc1)NC(=O)[C@H](CCCCN)NC(=O)[C@H](CO)NC(=O)[C@@H](NC(=O)[C@H](CC(=O)O)NC(=O)[C@H](CO)NC(=O)[C@@H](NC(=O)[C@](C)(Cc1ccccc1)NC(=O)[C@H](CO)NC(=O)CNC(=O)[C@H](Cc1c[nH]cn1)NC(=O)C(C)(C)NC(=O)[C@@H](N)Cc1c[nH]cn1)[C@@H](C)O)C(C)C)C(C)C)C(=O)N[C@@H](C)C(=O)N[C@@H](CC(N)=O)C(=O)N[C@H](C(N)=O)[C@@H](C)O` [Peptide 223] (H-H[Aib]HGS[αMeF]TSDVSK[αMeF]LDSR[Aib]AK([AEEA-AEEA-γGlu-C18 diacid])DFVQSIANT-NH2): the EC50 in assay [1] (setting [5]) was 104 pM; in assay [3], 48.8 pM. In addition, the “24 hr % Vehicle Food Intake” value in assay [2] (dose 10 nmol/kg) was 63.6%. Further, the “% Relative Potency Ratio” value in assay [3] (Table 7) is given as 4.2.

For the compound `CC[C@H](C)[C@H](NC(=O)[C@H](Cc1c[nH]c2ccccc12)NC(=O)[C@H](CCC(N)=O)NC(=O)[C@@H](NC(=O)[C@](C)(Cc1ccccc1)NC(=O)[C@H](CC(=O)O)NC(=O)[C@H](CCCCNC(=O)COCCOCCNC(=O)COCCOCCNC(=O)CC[C@H](NC(=O)CC[C@H](NC(=O)CCCCCCCCCCCCCCCCC(=O)O)C(=O)O)C(=O)O)NC(=O)[C@H](C)NC(=O)[C@H](C)NC(=O)[C@H](CCCNC(=N)N)NC(=O)[C@H](CO)NC(=O)[C@H](CC(=O)O)NC(=O)[C@H](CC(C)C)NC(=O)[C@](C)(Cc1ccccc1)NC(=O)[C@H](CCCCN)NC(=O)[C@H](CO)NC(=O)[C@@H](NC(=O)[C@H](CC(=O)O)NC(=O)[C@H](CO)NC(=O)[C@@H](NC(=O)[C@](C)(Cc1ccccc1)NC(=O)[C@H](CO)NC(=O)CNC(=O)[C@H](Cc1c[nH]cn1)NC(=O)C(C)(C)NC(=O)[C@@H](N)Cc1c[nH]cn1)[C@@H](C)O)C(C)C)C(C)C)C(=O)N[C@@H](C)C(=O)N[C@@H](CC(N)=O)C(=O)N[C@H](C(N)=O)[C@@H](C)O` [Peptide 247] (H-H[Aib]HGS[αMeF]TSDVSK[αMeF]LDSRAAK([AEEA-AEEA-γGlu-γGlu-C18 diacid])D[αMeF]VQWIANT-NH2; N-terminus assumed), the EC50 amounted to 51.1 pM in assay [1] (setting [5]) and 84.9 pM in assay [3]. Further, the “24 hr % Vehicle Food Intake” value in assay [2] (dose 10 nmol/kg) was determined as 66.9%. Moreover, in assay [3] (Table 7), the “% Relative Potency Ratio” value was found to be 1.2.

`CCCCCCCCCCCCCCCCCC(=O)N[C@@H](CCC(=O)N[C@@H](CCC(=O)NCCOCCOCC(=O)NCCOCCOCC(=O)NCCCC[C@H](NC(=O)[C@H](C)NC(=O)[C@H](C)NC(=O)[C@H](CCCNC(=N)N)NC(=O)[C@H](CO)NC(=O)[C@H](CC(=O)O)NC(=O)[C@H](CC(C)C)NC(=O)[C@](C)(Cc1ccccc1)NC(=O)[C@H](CCCCN)NC(=O)[C@H](CO)NC(=O)[C@@H](NC(=O)[C@H](CC(=O)O)NC(=O)[C@H](CO)NC(=O)[C@@H](NC(=O)[C@](C)(Cc1ccccc1)NC(=O)[C@H](CO)NC(=O)CNC(=O)[C@H](Cc1c[nH]cn1)NC(=O)C(C)(C)NC(=O)[C@@H](N)Cc1c[nH]cn1)[C@@H](C)O)C(C)C)C(=O)N[C@@H](CC(=O)O)C(=O)N[C@@](C)(Cc1ccccc1)C(=O)N[C@H](C(=O)N[C@@H](CCC(N)=O)C(=O)NC(C)(C)C(=O)N[C@H](C(=O)N[C@@H](C)C(=O)N[C@@H](CC(N)=O)C(=O)N[C@H](C(N)=O)[C@@H](C)O)[C@@H](C)CC)C(C)C)C(=O)O)C(=O)O` [Peptide 257] (H-H[Aib]HGS[αMeF]TSDVSK[αMeF]LDSRAAK([AEEA-AEEA-γGlu-γGlu-Stearoyl])D[αMeF]VQ[Aib]IANT-NH2): the EC50 in assay [1] (setting [5]) came to 1.66 pM; in assay [3] it was 7.35 pM. In addition, the figures for the “24 hr % Vehicle Food Intake” value in assay [2] (dose 3 nmol/kg) and in assay [2] (dose 10 nmol/kg) were 94.7% and 96.5%, respectively. In addition, the “% Relative Potency Ratio” value in assay [3] (Table 7) was 0.4.
